Laboratory results from patent US10487329B2, “Methods and compositions for the treatment of head and neck cancer” (Children's Hospital Medical Center, priority 2015, dated 2019).

Tests used:
IRAK1 = target: T1, IRAK1 (Homo sapiens, UniProt P51617); assay: Western blot for IRAK1 activation (phospho-IRAK1 Thr209) in HNSCC cell lines; format: cell-based; details: 10 μM, 24-72 hours post-treatment, UMSCC1 and UMSCC47 cells
T1 construct: endogenous in cells; host or cells: UMSCC1 and UMSCC47 cells
Experimental: Western blotting. Whole cell lysates were harvested using Laemmli buffer and a total of 20 μg of protein was analyzed as described previously. Membranes were probed with DEK (1:1000, BD Biosciences, San Jose, Calif., USA), IRAK1 (1:1000, Santa Cruz Biotechnology, Dallas, Tex., USA (sc-7883)), TRAF6 (1:1000, Santa Cruz (sc-7221)), phospho-IRAK1 (Thr209, 1:800, Assay Biotechnology Company (A1074), Sunnyvale, Calif., USA), phospho-p38 (1:500, Cell Signaling Technologies (4361)), p38 (1:1000, Cell Signaling Technologies (9212)), phospho-ERK1/2 (1:1000, Cell Signaling Technologies (4377)), ERK1/2 (1:1000, Cell Signaling Technologies (4695)), phospho-IKKa/r3 (1:500, Cell Signaling Technologies (2697)), IKKa (1:1000, Cell Signaling Technologies (2682)), phospho-hcBa (1:500, Cell Signaling Technologies (9246)), hcBa (1:1000, Cell Signaling Technologies (4812)), a-tubulin-HRP (1:10,000 Cell Signaling Technologies (9099)), actin (1:10,000 a gift from James Lessard), and GAPDH (1:1000, Cell Signaling Technologies (5174)).
IRAK1 inhibitor. […]
(§1) Cells and media were collected 72 hours later and prepared and analyzed as above. For the time-course experiment, cells were plated and inhibitor was added the following day, with protein collected at 24, 48, and 72 hours and analyzed by western blot for IRAK1 inhibition.

UMSCC1 cells = assay: Flow cytometry for cleaved caspase-3 (apoptosis), UMSCC1; format: cell-based, human; details: UMSCC1, inhibitor vs DMSO, 72 hours, p<0.05
Experimental: Flow cytometry for Cleaved Caspase-3. Lentivirally transduced cells were plated at equal densities and collected 48 hours later. Cells were fixed and prepped following the BD FITC Active Caspase-3 Apoptosis kit protocol (BD Biosciences). Adenovirally transduced cells were prepped with an Alexa-Fluor 647 conjugated cleaved-caspase 3 antibody to account for GFP-positivity (Cell Signaling Technologies (9602)). Analysis was performed on a BD FacsCanto and data analyzed on FlowJo software (Tree Star, Ashland, Oreg., USA). Experiments were performed 3 times with standard error of the mean (SEM) represented.
IRAK1 inhibitor. UMSCC1 cells were plated at equal densities and IRAK1 inhibitor (IRAK-1/4 inhibitor, 15409, Sigma-Aldrich, St. Louis, Mo., USA) added the same day for caspase-3 flow cytometry experiments. DMSO was added in equal volume for a control.
as §1

melanoma cells = details: in vitro and in vivo, references [20, 24]; cited from earlier work
IRAK1 and IRAK4 = details: reference [24]; cited from earlier work
MDS = details: references [20, 24]; cited from earlier work

T1 sequence (P51617 whole entry): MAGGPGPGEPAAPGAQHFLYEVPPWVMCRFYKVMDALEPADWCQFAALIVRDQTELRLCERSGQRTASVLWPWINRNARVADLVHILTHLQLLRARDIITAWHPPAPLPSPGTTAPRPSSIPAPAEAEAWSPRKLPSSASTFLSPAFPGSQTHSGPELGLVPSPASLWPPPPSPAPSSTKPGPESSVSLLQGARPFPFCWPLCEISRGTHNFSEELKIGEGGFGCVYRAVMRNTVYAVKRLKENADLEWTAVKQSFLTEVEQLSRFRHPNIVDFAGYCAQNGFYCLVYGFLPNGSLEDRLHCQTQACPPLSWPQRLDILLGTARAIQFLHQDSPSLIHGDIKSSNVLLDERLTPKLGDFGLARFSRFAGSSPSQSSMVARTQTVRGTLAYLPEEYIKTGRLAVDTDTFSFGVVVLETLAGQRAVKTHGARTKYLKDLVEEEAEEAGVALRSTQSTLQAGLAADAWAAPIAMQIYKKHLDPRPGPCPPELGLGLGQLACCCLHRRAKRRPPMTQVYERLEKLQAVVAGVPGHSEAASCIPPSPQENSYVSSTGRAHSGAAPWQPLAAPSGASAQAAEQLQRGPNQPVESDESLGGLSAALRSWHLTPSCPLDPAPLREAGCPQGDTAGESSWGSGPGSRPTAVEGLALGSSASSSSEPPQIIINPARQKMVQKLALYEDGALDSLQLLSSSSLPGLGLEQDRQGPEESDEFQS

activation of IRAK1 (phosphorylation of IRAK1) (IRAK1): attenuated activation of IRAK1
SMILES: O=C(Nc1nc2ccccc2n1CCN1CCOCC1)c1cccc([N+](=O)[O-])c1 [IRAK-1/4 inhibitor, N-(2-morpholinylethyl)-2-(3-nitrobenzoylamido)-benzimidazole]
apoptosis (cleaved caspase-3) (UMSCC1 cells): Significantly increased apoptosis
apoptosis in melanoma cells (melanoma cells): increase apoptosis
kinase selectivity (IRAK1 and IRAK4): selective for IRAK1 and IRAK4
signaling and cell viability in MDS (MDS): inhibit signaling and cell viability
